Results reported in article PMC5430839, “Deciphering the mode of action of cell wall-inhibiting antibiotics using metabolic labeling of growing peptidoglycan in Streptococcus pyogenes” (Scientific Reports, 2017).
Where two headings read alike, the source gives them in different places.

Key:
S. pyogenes strain JRS4 [1] = assay: Imaging of peripheral growth by FDAA pre-labeling in D-cycloserine/oxacillin-treated cells; type: cell-based, Streptococcus pyogenes; details: FDAA pre-labeling 1 h, then antibiotic 3 h
From the text: The observed enlargement of cells implied that cell wall synthesis could proceed, at least partly, in the presence of these antibiotics at their subbacteriostatic concentrations. We therefore studied the relationship between peripheral growth length and axial length for cells via dual-color staining. Nile red was used to stain the bacterial cell membrane, and the fluorescent D-amino acid (FDAA) labeling[10]–[12] was employed for old cell wall (preexisting prior to antibiotic treatment). In the presence of antibiotic, peripheral growth length was measured as a gap between the old (stained) regions of the preexisting cell wall (Fig. 5A and B).
Bacterial cells grown in THY to an OD600 of 0.2 (exponential phase) at 37 °C, and 100-μL aliquots of culture mixture were taken (Fig. 5). FDAA solution (final concentration = 1 mM; FL-D-Lys for Fig. 5A and E, tetramethylrhodamine- D-Lys for Fig. 5D) was added, and the mixture was incubated for 1 h at 37 °C in the dark. The mixture was centrifuged (12,000 rpm, 2 min, 4 °C), the supernatant was removed, and the pellet was washed with PBS buffer thrice to remove unreacted FDAA. Cells were re-suspended in 100-μL THY and incubated at 37 °C in the dark with antibiotics for 2.5 h. […]

S. pyogenes strain JRS4 [2] = assay: Live cell labeling with sortase A substrate in the presence of antibiotics: phenotype and cell size distribution; type: cell-based, Streptococcus pyogenes; details: for cells with one or more completed septa among cells with multiple division sites: n = 55 (CBPV), 114 (flavomycin), 105 (ΔNCBPV) cells
From the text: Streptococcal cell wall synthesis consists of cylindrical peripheral synthesis and septal synthesis (Fig. 1A). A study using Streptococcus pneumoniae illustrated that the serine-threonine kinase StkP controls the switch from peripheral synthesis to septal synthesis. Splitting of the septum (cell separation) is then mediated by the action of autolysin. We labeled the GAS cell wall using the sortase method in the absence of antibiotics, and the observed labeling patterns of GAS were classified into three phenotypes (Fig. 1A–C). Phenotype A cells are newly divided cells without specific fluorescent labeling. Phenotype B cells are in the peripheral growth stage. A characteristic two-elongated-dot image or an open ring corresponds to peripheral growth near the bacterial division site. Phenotype C cells are in the septal growth stage, and the dividing septum is fluorescently stained. The distribution (%) of phenotypes A, B, and C among cells was 37 ± 2, 47 ± 2, and 16 ± 1, respectively, in log-phase GAS. Data represent the mean ± sem (n = 3). Subsequently, we constructed a histogram of each phenotype population as a function of bacterial cell length, as defined in Fig. 1C (orange, Fig. 1D). The subpopulation of cells with a specific phenotype is overlaid on the total cell size distribution (blue). […] The histograms also illustrate that cells grow from phenotype A, through phenotype B, to phenotype C (followed by cell separation), confirming that peripheral growth precedes septal growth in GAS. We speculated that the changes of this histogram would provide information on antibiotic modes of action.
(§1) S. pyogenes strain JRS4 (M6^+ F1^+) was grown in Todd-Hewitt broth supplemented with 0.3% yeast extract (THY) at 37 °C.
Bacterial cells grown in THY to an OD600 of 0.35–0.4 (exponential phase) at 37 °C were exposed to antibiotics and incubated for 1 h, and 100-μL aliquots of culture mixture were taken and added to a solution of sortase substrate (FL-KLPETG-NH2, final concentration = 1 mM). After incubation for 2.5 h at 37 °C in the dark, Nile Red (10 μg/mL) and DAPI (1 μg/mL) were added. The mixture was allowed to stand for 30 min and then centrifuged (12,000 rpm, 2 min, 4 °C). The supernatant was removed, and the pellet was washed thrice with PBS buffer to remove unreacted sortase substrate. Cells were re-suspended in PBS buffer, mounted on a glass slide, and examined by fluorescent microscopy. Images were analyzed manually using ImageJ software (ver. 1.50). Sets of axial- and equatorial-length were also recorded for each cell. At least 200 cells were analyzed in each analysis. All experiments were performed at least thrice, and representative results are shown.

S. pyogenes strain JRS4 [3] = assay: Determination of subbacteriostatic concentrations (growth curve, OD600); type: cell-based, Streptococcus pyogenes; details: minimum dose at which growth curve plateaus at OD600 <1.0 after 4-h incubation at 37 °C, THY, added at OD600 0.4
Protocol: as §1
S. pyogenes were grown in THY to an OD600 of 0.4 (exponential phase) at 37 °C and then added a solution of antibiotic of varying concentration. The culture mixture was further incubated for 4 h at 37 °C. Subbacteriostatic concentration in this study is the minimum dose of antibiotic that makes growth curve reach a plateau at OD600 of <1.0 after the 4-h incubation. In the absence of antibiotics, GAS cells grew up to OD600 of approximately 1.6. Subbacteriostatic concentrations were determined for each antibiotic, and mode-of-action analyses were performed at these concentrations (Figs 2, 3, 4, 5, 6 and 7).

gram-positive strains = details: ref many studies; cited from earlier work
[4] = antibiotic at subbacteriostatic conc., mean ± sem, n = 3
[5] = antibiotic at subbacteriostatic conc.

N[C@@H]1CON=C1O [D-Cycloserine]
peripheral growth/axial length relationship (dot blot analysis) (S. pyogenes strain JRS4 [1]): considerably larger than that of oxacillin-treated cells | proportion of cells, phenotype A (no active cell wall synthesis) (S. pyogenes strain JRS4 [2]; [4]): 25 ± 6% | proportion of cells, phenotype B (peripheral growth) (S. pyogenes strain JRS4 [2]; [4]): 68 ± 7% | proportion of cells, phenotype C (septal growth) (S. pyogenes strain JRS4 [2]; [4]): 2 ± 1% | proportion of cells, phenotype D (multiple septa in an elongated cell) (S. pyogenes strain JRS4 [2]; [4]): 5 ± 1% | subbacteriostatic concentration (S. pyogenes strain JRS4 [3]): 100 µg/mL

Cc1onc(-c2ccccc2)c1C(=O)N[C@@H]1C(=O)N2[C@@H]1SC(C)(C)[C@@H]2C(=O)O [Oxacillin]
peripheral growth/axial length relationship (dot blot analysis) (S. pyogenes strain JRS4 [1]): peripheral growth barely contributed to cell enlargement | proportion of cells, phenotype A (no active cell wall synthesis) (S. pyogenes strain JRS4 [2]; [4]): 19 ± 4% | proportion of cells, phenotype B (peripheral growth) (S. pyogenes strain JRS4 [2]; [4]): 60 ± 4% | proportion of cells, phenotype C (septal growth) (S. pyogenes strain JRS4 [2]; [4]): 12 ± 5% | proportion of cells, phenotype D (multiple septa in an elongated cell) (S. pyogenes strain JRS4 [2]; [4]): 9 ± 2% | subbacteriostatic concentration (S. pyogenes strain JRS4 [3]): 4 µg/mL

Bacitracin
subbacteriostatic concentration (S. pyogenes strain JRS4 [3]): 4 µg/mL

Flavomycin
proportion of cells, phenotype A (no active cell wall synthesis) (S. pyogenes strain JRS4 [2]; [4]): 4 ± 1% | proportion of cells, phenotype B (peripheral growth) (S. pyogenes strain JRS4 [2]; [4]): 20 ± 6% | proportion of cells, phenotype C (septal growth) (S. pyogenes strain JRS4 [2]; [4]): 22 ± 2% | proportion of cells, phenotype D (multiple septa in an elongated cell) (S. pyogenes strain JRS4 [2]; [4]): 54 ± 5% | cells with one or more completed septa among cells with multiple division sites (S. pyogenes strain JRS4 [2]; [5]): 98% | subbacteriostatic concentration (S. pyogenes strain JRS4 [3]): 1 µg/mL

Ramoplanin
proportion of cells, phenotype A (no active cell wall synthesis) (S. pyogenes strain JRS4 [2]; [4]): 27 ± 3% | proportion of cells, phenotype B (peripheral growth) (S. pyogenes strain JRS4 [2]; [4]): 50 ± 4% | proportion of cells, phenotype C (septal growth) (S. pyogenes strain JRS4 [2]; [4]): 23 ± 5% | subbacteriostatic concentration (S. pyogenes strain JRS4 [3]): 2 µg/mL

Vancomycin
proportion of cells, phenotype A (no active cell wall synthesis) (S. pyogenes strain JRS4 [2]; [4]): 34 ± 4% | proportion of cells, phenotype B (peripheral growth) (S. pyogenes strain JRS4 [2]; [4]): 49 ± 4% | proportion of cells, phenotype C (septal growth) (S. pyogenes strain JRS4 [2]; [4]): 17 ± 1% | subbacteriostatic concentration (S. pyogenes strain JRS4 [3]): 4 µg/mL

chlorobiphenyl vancomycin [CBPV]
proportion of cells, phenotype A (no active cell wall synthesis) (S. pyogenes strain JRS4 [2]; [4]): 20 ± 1% | proportion of cells, phenotype B (peripheral growth) (S. pyogenes strain JRS4 [2]; [4]): 58 ± 6% | proportion of cells, phenotype C (septal growth) (S. pyogenes strain JRS4 [2]; [4]): 9 ± 2% | proportion of cells, phenotype D′ (multiple peripheral growth sites, axially elongated) (S. pyogenes strain JRS4 [2]; [4]): 13 ± 4% | cells with one or more completed septa among cells with multiple division sites (S. pyogenes strain JRS4 [2]; [5]): 4% | subbacteriostatic concentration (S. pyogenes strain JRS4 [3]): 0.25 µg/mL

des-N-methyl-leucyl-vancomycin
antibacterial activity (gram-positive strains): totally loses its antibacterial activity

des-N-methylleucyl chlorobiphenyl vancomycin [ΔNCBPV]
proportion of cells, phenotype B (peripheral growth) (S. pyogenes strain JRS4 [2]): 45 ± 12% | proportion of cells, phenotype C (septal growth) (S. pyogenes strain JRS4 [2]): 17 ± 8% | proportion of cells, phenotype D′ (multiple peripheral growth sites, axially elongated) (S. pyogenes strain JRS4 [2]): 24 ± 3% | proportion of cells, phenotype A (no active cell wall synthesis) (S. pyogenes strain JRS4 [2]; [4]): 14 ± 1% | cells with one or more completed septa among cells with multiple division sites (S. pyogenes strain JRS4 [2]; [5]): 52% | subbacteriostatic concentration (S. pyogenes strain JRS4 [3]): 3 µg/mL
